Measurements from US10117878B2, “Ligands for nematode nuclear receptors and uses thereof” (priority 2006, dated 2018).

What was measured:
daf-9(dh6) null worms = experiment: Rescue of daf-9 null worms by extracts of sterols incubated with DAF-9 or control microsomes; conditions: for effect on daf-9 animals, DAF-9 microsomes (in words) / rescue of the Daf-c phenotypes: extracts from DAF-9 microsomes incubated with 100 μM sterol; for effect on daf-9 phenotypes, control microsomes (in words): extracts from control (hOR only) microsomes incubated with 100 μM sterol
Protocol: Microsomes containing hOR or hOR and Daf-9 generated from Sf9 cells were thawed on ice and added to a final concentration of 0.5 mg/mL in 0.1M potassium phosphate buffer in the presence of an NADPH regenerating system (50 U/mL DL-isocitrate dehydrogenase, 0.1 M isocitrate and 0.1 M MgCl2). Substrates were added from stock solutions at 10^−2 M to a final concentration of 100 μM (final reaction volume of 0.5 mL). The mixture was preincubated for 3 min at 37° C. and the reaction was initiated by the addition of NADPH (1 mM). After 16 hrs, the reactions were stopped by extraction with 2×2 mL of methyl-tert-butyl-ether and the top layers were combined and dried under nitrogen. In some experiments, 0.5 μg of 1,4-cholestadiene-3-one was added as an internal standard for the extraction.
Individual 3-keto sterols and their respective 3β-hydroxy sterols were incubated with Sf9 cell microsomes co-expressing DAF-9 and the human P450 oxidoreductase (hOR). As a control, microsomes from cells expressing hOR alone were used.

GAL4-DAF-12 = molecular target: T1, GAL4-DAF-12 (Caenorhabditis elegans, UniProt G5EFF5); experiment: Co-transfection assay: GAL4-DAF-12 and GAL4-responsive luciferase reporter in HEK293 cells; assay type: cell-based, C. elegans; conditions: for Activation of DAF-12, initial compound screen: bile acids 10 μM with IBAT co-transfected, assays in the presence or absence of co-transfected DAF-9; for DAF-9 independent activation of GAL4-DAF-12 (in words): 10 μM sterol, without DAF-9
T1 construct: 184-754aa (DAF-12); expressed in transfected cells; host or cells: HEK293

C. elegans = conditions: in vivo; cited from earlier work
[1] = molecular target: DAF-12 ligand binding domain (Caenorhabditis elegans, UniProt G5EFF5); conditions: 1:5000 dilution of DAF-9 microsomes incubated with 100 μM sterol
[2] = test system: DAF-12 homolog with co-transfected DAF-9; experiment: Activation of the Anycolostoma ceylancium DAF-12 homolog with co-transfection of DAF-9; assay type: cell-based
Text: This invention contemplates the development of strategies against nematodes, including but not limited to parasitic nematodes. Many parasitic nematodes contain homologs of the orphan nuclear receptor DAF-12, which, as described above, is a key regulator of reproductive development in C. elegans. See, e.g., Siddiqui et al. (2000). In accordance with the present invention, therefore, ligands that are operative in the DAF-9/DAF-12 pathway in C. elegans will affect the life cycles of parasitic nematodes similarly. The inventors have discovered in Anycolostoma ceylancium, for example, a DAF-12 homolog that is activated by DAF-12 ligands, identified pursuant to this invention.

[3] = test system: DAF-12 in the presence of DAF-9; experiment: Co-transfection assay: GAL4-DAF-12 reporter in HEK293 cells with co-transfected DAF-9; assay type: cell-based, C. elegans; conditions: 10 μM sterol; fold induction of RLU compared to ethanol control
Protocol: To screen for sterol-derived ligands of DAF-12 a co-transfection assay in HEK293 cells was performed using a chimeric GAL4-DAF-12 receptor and a GAL4-responsive luciferase reporter. […] Our initial compound screen consisted of bile acids and known vertebrate steroid and endocrine hormones as these compounds are ligands for PXR, VDR and LXR, the closest vertebrate homologs of DAF-12 (Antebi et al., 2000; Mooijaart et al., 2005).

human CYP27A1 = molecular target: T2, human CYP27A1 (Homo sapiens, UniProt Q02318); experiment: Co-transfection of HEK293 cells with GAL4-DAF-12, human CYP27A1 and bovine adrenodoxin; assay type: cell-based; conditions: sterol 25 μM; bovine adrenodoxin co-transfected
T2 construct: expressed in transfected cells; host or cells: HEK293
T2 sequence (Q02318 34-531): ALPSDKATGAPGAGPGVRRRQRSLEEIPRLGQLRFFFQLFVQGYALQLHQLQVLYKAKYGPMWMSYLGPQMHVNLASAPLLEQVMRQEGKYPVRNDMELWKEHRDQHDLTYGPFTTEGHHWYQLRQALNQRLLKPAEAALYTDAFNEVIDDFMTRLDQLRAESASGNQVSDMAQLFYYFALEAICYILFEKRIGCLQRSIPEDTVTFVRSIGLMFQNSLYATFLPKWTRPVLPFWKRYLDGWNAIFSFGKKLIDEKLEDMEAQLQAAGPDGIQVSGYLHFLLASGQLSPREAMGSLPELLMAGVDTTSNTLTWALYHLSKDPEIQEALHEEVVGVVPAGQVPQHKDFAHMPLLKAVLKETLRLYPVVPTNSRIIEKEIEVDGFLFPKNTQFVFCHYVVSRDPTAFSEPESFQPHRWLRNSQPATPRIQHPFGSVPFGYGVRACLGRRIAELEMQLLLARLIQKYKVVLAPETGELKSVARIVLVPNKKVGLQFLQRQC
Protocol: (§1) Therefore, the ability of CYP27A1 to metabolize 4-cholesten-3-one into a DAF-12 activator was tested.

mouse CYP27A1 = molecular target: T3, mouse CYP27A1 (Mus musculus, UniProt Q9DBG1); experiment: Co-transfection of HEK293 cells with GAL4-DAF-12, mouse CYP27A1 and bovine adrenodoxin; assay type: cell-based; conditions: sterol 25 μM; bovine adrenodoxin co-transfected
T3 construct: expressed in transfected cells; host or cells: HEK293
T3 sequence (Q9DBG1 33-533): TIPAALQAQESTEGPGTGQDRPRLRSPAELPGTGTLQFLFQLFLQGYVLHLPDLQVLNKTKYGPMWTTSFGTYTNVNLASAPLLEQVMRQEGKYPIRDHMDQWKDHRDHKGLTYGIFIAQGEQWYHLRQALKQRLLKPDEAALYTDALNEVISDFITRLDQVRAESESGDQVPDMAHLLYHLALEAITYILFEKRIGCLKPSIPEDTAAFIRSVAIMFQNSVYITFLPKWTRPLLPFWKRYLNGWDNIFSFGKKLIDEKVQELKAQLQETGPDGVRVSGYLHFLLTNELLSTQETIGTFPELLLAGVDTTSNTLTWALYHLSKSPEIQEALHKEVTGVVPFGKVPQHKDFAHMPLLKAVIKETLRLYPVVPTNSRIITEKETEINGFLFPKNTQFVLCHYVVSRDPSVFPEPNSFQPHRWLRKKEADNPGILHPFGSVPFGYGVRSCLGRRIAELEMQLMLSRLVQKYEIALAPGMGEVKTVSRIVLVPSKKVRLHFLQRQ
Protocol: as §1

[4] = extracts from DAF-9 microsomes incubated with sterol

T1 sequence (G5EFF5 184-753): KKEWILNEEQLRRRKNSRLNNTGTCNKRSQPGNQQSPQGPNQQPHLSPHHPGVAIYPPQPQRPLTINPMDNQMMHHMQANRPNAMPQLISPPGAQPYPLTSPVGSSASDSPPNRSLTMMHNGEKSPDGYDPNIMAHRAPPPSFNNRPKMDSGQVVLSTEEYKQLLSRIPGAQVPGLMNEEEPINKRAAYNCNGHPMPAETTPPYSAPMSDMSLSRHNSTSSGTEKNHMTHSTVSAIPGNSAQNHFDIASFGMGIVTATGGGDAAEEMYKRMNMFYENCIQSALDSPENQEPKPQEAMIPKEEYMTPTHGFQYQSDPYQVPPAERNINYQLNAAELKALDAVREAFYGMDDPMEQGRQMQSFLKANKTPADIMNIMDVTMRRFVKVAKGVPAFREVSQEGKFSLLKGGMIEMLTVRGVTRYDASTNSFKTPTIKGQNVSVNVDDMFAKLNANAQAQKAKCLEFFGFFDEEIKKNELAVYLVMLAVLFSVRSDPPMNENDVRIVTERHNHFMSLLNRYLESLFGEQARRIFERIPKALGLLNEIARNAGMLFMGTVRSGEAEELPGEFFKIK
Sequence of DAF-12 ligand binding domain (G5EFF5 507-753): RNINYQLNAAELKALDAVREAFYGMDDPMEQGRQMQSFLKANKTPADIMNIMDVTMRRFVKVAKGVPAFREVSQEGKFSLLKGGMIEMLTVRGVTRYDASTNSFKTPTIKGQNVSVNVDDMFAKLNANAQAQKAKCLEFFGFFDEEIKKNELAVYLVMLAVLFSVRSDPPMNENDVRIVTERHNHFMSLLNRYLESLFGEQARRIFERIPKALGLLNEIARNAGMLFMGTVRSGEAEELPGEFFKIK

CC(C)CCC[C@@H](C)[C@H]1CC[C@H]2[C@@H]3CC=C4C[C@@H](O)CC[C@]4(C)[C@H]3CC[C@]12C [cholesterol]
effect on daf-9 animals, DAF-9 microsomes (in words) (daf-9(dh6) null worms): no effect was seen | effect on daf-9 phenotypes, control microsomes (in words) (daf-9(dh6) null worms): no effect was seen

C[C@H](CCC(=O)O)[C@H]1CC[C@H]2[C@@H]3[C@H](O)C[C@@H]4C[C@H](O)CC[C@]4(C)[C@H]3C[C@H](O)[C@]12C [cholic acid]
Activation of DAF-12, initial compound screen (GAL4-DAF-12): No other bile acids or endocrine hormones tested activated DAF-12

C[C@]12C[C@H](O)[C@H]3[C@@H](CCC4=CC(=O)CC[C@@]43C)[C@@H]1CC[C@@H]2C(=O)CO [corticosterone]
Activation of DAF-12, initial compound screen (GAL4-DAF-12): No other bile acids or endocrine hormones tested activated DAF-12

CC(C)CCC[C@@H](C)[C@H]1CC[C@H]2C3=CC[C@H]4C[C@@H](O)CC[C@]4(C)[C@H]3CC[C@]12C [lathosterol]
effect on daf-9 animals, DAF-9 microsomes (in words) (daf-9(dh6) null worms): exhibited the Mig phenotype and were sterile | rescue of the Daf-c phenotypes (daf-9(dh6) null worms): 83% | effect on daf-9 phenotypes, control microsomes (in words) (daf-9(dh6) null worms): no effect | effect on the nematode life cycle as the sole dietary sterol (C. elegans): supported full reproductive growth

CC(C)CCC[C@@H](C)[C@H]1CC[C@H]2C3=CC[C@H]4CC(=O)CC[C@]4(C)[C@H]3CC[C@]12C [lathosterone]
ligand binding activity of DAF-9 microsomes incubated with sterol [1]: strong ligand binding activity | effect on daf-9 animals, DAF-9 microsomes (in words) (daf-9(dh6) null worms): indistinguishable from wild-type adults | rescue of the Daf-c phenotypes (daf-9(dh6) null worms): 100% | effect on daf-9 phenotypes, control microsomes (in words) (daf-9(dh6) null worms): did not rescue any daf-9 phenotypes | activation of the DAF-12 homolog with co-transfection of DAF-9 [2]: causes activation of this DAF-12 homolog | activation of DAF-12 upon co-transfection with DAF-9 [3]: 433 fold | activation of GAL4-DAF-12 with co-transfected human CYP27A1 (human CYP27A1): had no effect | activation of GAL4-DAF-12 with co-transfected mouse CYP27A1 (mouse CYP27A1): had no effect | DAF-9 independent activation of GAL4-DAF-12 (in words) (GAL4-DAF-12): required the presence of DAF-9

CC(C)CCC[C@@H](C)[C@H]1CC[C@H]2C3=CC[C@H]4[C@H](C)[C@@H](O)CC[C@]4(C)[C@H]3CC[C@]12C [lophenol]
effect on daf-9 animals, DAF-9 microsomes (in words) (daf-9(dh6) null worms): had no effect | effect on daf-9 phenotypes, control microsomes (in words) (daf-9(dh6) null worms): had no effect | effect on the nematode life cycle as the sole dietary sterol (C. elegans): constitutively entered dauer diapause

CC(C)CCC[C@@H](C)[C@H]1CC[C@H]2C3=CC[C@H]4[C@H](C)C(=O)CC[C@]4(C)[C@H]3CC[C@]12C [lophenone]
effect on daf-9 animals, DAF-9 microsomes (in words) (daf-9(dh6) null worms): resulted in rescue of Daf-c, none of these animals were normal | animals that failed to enter dauer, had molting defects, or were dead (daf-9(dh6) null worms; [4]): 42% | animals that were Mig (daf-9(dh6) null worms; [4]): 58% | effect on daf-9 phenotypes, control microsomes (in words) (daf-9(dh6) null worms): dependent on DAF-9 | activation of DAF-12 upon co-transfection with DAF-9 [3]: 103 fold | DAF-9 independent activation of GAL4-DAF-12 (in words) (GAL4-DAF-12): required the presence of DAF-9

CC(=O)[C@H]1CC[C@H]2[C@@H]3CC=C4C[C@@H](O)CC[C@]4(C)[C@H]3CC[C@]12C [pregnenolone]
Activation of DAF-12, initial compound screen (GAL4-DAF-12): No other bile acids or endocrine hormones tested activated DAF-12

CC(=O)[C@H]1CC[C@H]2[C@@H]3CCC4=CC(=O)CC[C@]4(C)[C@H]3CC[C@]12C [progesterone]
Activation of DAF-12, initial compound screen (GAL4-DAF-12): No other bile acids or endocrine hormones tested activated DAF-12

C[C@]12CC[C@H]3[C@@H](CCC4=CC(=O)CC[C@@]43C)[C@@H]1CC[C@@H]2O [testosterone]
Activation of DAF-12, initial compound screen (GAL4-DAF-12): No other bile acids or endocrine hormones tested activated DAF-12
